Target: KRAS G12C and cRAF (Ras-binding domain) interaction (Homo sapiens (Human), UniProt P01116, C118S/C51S/C80L/G12C)
Experiment: Inhibition of KRAS G12C and cRAF binding (AlphaScreen)
Conditions: not given
Procedure: Compounds were diluted in 100% DMSO and each compound concentration was spotted at 200 nl/well onto low volume, white 384 well plates. […] Plates were incubated for 19-20 hours. A mixture of RBD and the AlphaScreen streptavidin donor and glutathione acceptor beads diluted in 25 mM Hepes, pH 7.4, 150 mM NaCl, 5 mM MgCl2, 0.01% TritonX-100 and 2% DMSO was then added at 10 ul/well and incubated for 60-90 minutes before the samples were read for emission at 570 nm after excitation of the donor beads at 680 nm. All incubations were performed at room temperature. […] IC50s were determined using nonlinear regression fit of [inhibitor]vs. response (4 parameters). […]

KRAS G12C and cRAF (Ras-binding domain) interaction, sequence (P01116 other isoform, or with tags, fused parts or gaps G12C/C51S/C80L/C118S): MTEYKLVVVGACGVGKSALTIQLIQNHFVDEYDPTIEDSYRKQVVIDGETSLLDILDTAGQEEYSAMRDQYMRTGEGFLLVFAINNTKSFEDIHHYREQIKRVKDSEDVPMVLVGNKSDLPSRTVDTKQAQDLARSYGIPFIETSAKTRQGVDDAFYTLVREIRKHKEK

| IC50 [nM] | Structure (SMILES) |
| --- | --- |
| 10 to 100 | C=CC(=O)N1CC[C@@H](N(CC(F)F)c2nc(OC[C@@]34CCCN3C[C@H](F)C4)nc3c(F)c(-c4cccc5cccc(Cl)c45)ncc23)C1 [Example 194, 1-((R)-3-((7-(8-chloronaphthalen-1-yl)-8-fluoro-2-(((2R,7aS)-2-fluorotetrahydro-1H-pyrrolizin-7a(5H)-yl)methoxy)pyrido[4,3-d]pyrimidin-4-yl)(2,2-difluoroethyl)amino)pyrrolidin-1-yl)prop-2-en-1-one] |

Same assay, conditions: GMPPNP-loaded KRAS G12C, 19-20 hours incubation with compound; read-out: IC50 (Inhibition of KRAS G12C and cRAF Binding)

| Structure (SMILES) | IC50 [nM] |
| --- | --- |
| CN(CC1CN(C(=O)/C=C/c2nc(C3COC3)no2)C1)c1nc(OC[C@@]23CCCN2C[C@H](F)C3)nc2c(F)c(-c3cccc4cccc(Cl)c34)ncc12 [Example 152, (E)-1-(3-(((7-(8-chloronaphthalen-1-yl)-8-fluoro-2-(((2R,7aS)-2-fluorotetrahydro-1H-pyrrolizin-7a(5H)-yl)methoxy)pyrido[4,3-d]pyrimidin-4-yl)(methyl)amino)methyl)azetidin-1-yl)-3-(3-(oxetan-3-yl)-1,2,4-oxadiazol-5-yl)prop-2-en-1-one] | < 10 |
| CN(c1nc(OC[C@@]23CCCN2C[C@H](F)C3)nc2c(F)c(-c3cccc4ccc(F)c(Cl)c34)ncc12)[C@@H]1CCN(C(=O)/C=C/[C@H]2CCN2CCO)C1 [Example 222, (E)-1-((R)-3-((7-(8-chloro-7-fluoronaphthalen-1-yl)-8-fluoro-2-(((2R,7aS)-2-fluorotetrahydro-1H-pyrrolizin-7a(5H)-yl)methoxy)pyrido[4,3-d]pyrimidin-4-yl)(methyl)amino)pyrrolidin-1-yl)-3-((R)-1-(2-hydroxyethyl)azetidin-2-yl)prop-2-en-1-one] | < 10 |
| C=CC(=O)C1CN(c2nc(OC[C@@H]3CCCN3C)nc3c2CCN(c2cccc4cccc(Cl)c24)C3)C1 [Example 41, (S)-1-(1-(7-(8-chloronaphthalen-1-yl)-2-((1-methylpyrrolidin-2-yl)methoxy)-5,6,7,8-tetrahydropyrido[3,4-d]pyrimidin-4-yl)azetidin-3-yl)prop-2-en-1-one] | 10 to 100 |
| COC(=O)/C=C/C(=O)N1CCC(N(C)c2nc(OC[C@@H]3CCCN3C)nc3c2CCN(c2cccc4cccc(Cl)c24)C3)C1 (stereo partly drawn) [Example 6, methyl(E)-4-(3-((7-(8-chloronaphthalen-1-yl)-2-(((S)-1-methylpyrrolidin-2-yl)methoxy)-5,6,7,8-tetrahydropyrido[3,4-d]pyrimidin-4-yl)(methyl)amino)pyrrolidin-1-yl)-4-oxobut-2-enoate] | 10 to 100 |

The next lines start with the values.

| IC50 [nM] | Structure (SMILES) |
| --- | --- |
| > 500 | C=CC(=O)N1CC[C@@H](N(C)c2nc(OC[C@@]34CCCN3C[C@H](F)C4)nc3c(F)c(-c4cccc5cccc(C(F)F)c45)ncc23)C1 [Example 307, 1-((R)-3-((7-(8-(difluoromethyl)naphthalen-1-yl)-8-fluoro-2-(((2R,7aS)-2-fluorohexahydro-1H-pyrrolizin-7a-yl)methoxy)pyrido[4,3-d]pyrimidin-4-yl)(methyl)amino)pyrrolidin-1-yl)prop-2-en-1-one] |
| 10 to 100 | Cc1c(F)ccc2cccc(-c3ncc4c(N(C)[C@@H]5CCN(C(=O)/C=C/CN(C)C)C5)nc(OC[C@@]56CCCN5C[C@H](F)C6)nc4c3F)c12 [Example 202, (E)-4-(dimethylamino)-1-((R)-3-((8-fluoro-7-(7-fluoro-8-methylnaphthalen-1-yl)-2-(((2R,7aS)-2-fluorotetrahydro-1H-pyrrolizin-7a(5H)-yl)methoxy)pyrido[4,3-d]pyrimidin-4-yl)(methyl)amino)pyrrolidin-1-yl)but-2-en-1-one] |
| 100 to 500 | CCc1c(F)ccc2cccc(-c3ncc4c(N(C)CC5CN(C(=O)/C=C/c6cc(C)nc(C)n6)C5)nc(OC[C@@]56CCCN5C[C@H](F)C6)nc4c3F)c12 [Example 283, (E)-3-(2,6-dimethylpyrimidin-4-yl)-1-(3-(((7-(8-ethyl-7-fluoronaphthalen-1-yl)-8-fluoro-2-(((2R,7aS)-2-fluorotetrahydro-1H-pyrrolizin-7a(5H)-yl)methoxy)pyrido[4,3-d]pyrimidin-4-yl)(methyl)amino)methyl)azetidin-1-yl)prop-2-en-1-one] |
| 100 to 500 | Cc1cc(/C=C/C(=O)N2CCN(c3nc(OC[C@@]45CCCN4C[C@H](F)C5)nc4c(F)c(-c5cccc6cccc(Cl)c56)ncc34)CC2)nc(C)n1 [Example 243, (E)-1-(4-(7-(8-chloronaphthalen-1-yl)-8-fluoro-2-(((2R,7aS)-2-fluorotetrahydro-1H-pyrrolizin-7a(5H)-yl)methoxy)pyrido[4,3-d]pyrimidin-4-yl)piperazin-1-yl)-3-(2,6-dimethylpyrimidin-4-yl)prop-2-en-1-one] |
| 10 to 100 | CN(c1nc(OC[C@@]23CCCN2C[C@H](F)C3)nc2c(F)c(-c3cccc4cccc(Cl)c34)ncc12)[C@@H]1CCN(C(=O)C#C[C@@]2(C)CCCN2C)C1 [Example 197, 1-((R)-3-((7-(8-chloronaphthalen-1-yl)-8-fluoro-2-(((2R,7aS)-2-fluorohexahydro-1H-pyrrolizin-7a-yl)methoxy)pyrido[4,3-d]pyrimidin-4-yl)(methyl)amino)pyrrolidin-1-yl)-3-((R)-1,2-dimethylpyrrolidin-2-yl)prop-2-yn-1-one] |

Same assay, conditions: additional exemplary compounds; KRAS G12C and cRAF binding; read-out: RAF1 RBD IC50

| Structure (SMILES) | IC50 [nM] |
| --- | --- |
| Cc1nccc(/C=C/C(=O)N2CC3(CCN(c4nc(OC[C@@]56CCCN5C[C@H](F)C6)nc5c(F)c(-c6cccc7cccc(Cl)c67)ncc45)C3)C2)n1 | > 500 |
| Cc1nc(/C=C/C(=O)NCCN(C)c2nc(OCC34CCCN3CCC4)nc3c2CCN(c2cccc4cccc(Cl)c24)C3)no1 | > 500 |
| C=CC(=O)C[C@H](C)N(C)c1nc(OC[C@@H]2CCCN2C)nc2c1CCN(c1cccc3ccccc13)C2 | > 500 |
| CN(CCS(=O)(=O)/C=C/CC1CC1)c1nc(OCC23CCCN2CCC3)nc2c1CCN(c1cccc3cccc(Cl)c13)C2 | > 500 |
| C=CC(=O)N1CCC1CN(C)c1nc(OC[C@@]23CCCN2C[C@H](F)C3)nc2c(F)c(-c3cccc4cccc(Cl)c34)ncc12 (some centres unmarked) | > 500 |
| C=CC(=O)N1C[C@H](N(C)c2nc(OCC34CCCN3CCC4)nc3c2CCN(c2cccc4cccc(Cl)c24)C3)CC1C#N (some centres unmarked) | 100 to 500 |
| CN(C)C/C=C/C(=O)N1CC[C@@H](N(C)c2nc(OC[C@@H]3CCCN3C)nc3c2CCN(c2cccc4cccc(Cl)c24)C3)C1 | 100 to 500 |
| C=CC(=O)N1C[C@H]2C[C@@H]1CN2c1nc(OCC23CCCN2CCC3)nc2c1CCN(c1cccc3cccc(Cl)c13)C2 | > 500 |
| C=CC(=O)N1C2CCC1CN(c1nc(OCC34CCCN3CCC4)nc3c1CCN(c1cccc4cccc(Cl)c14)C3)C2 | > 500 |

More lines, now with the values ahead:

| IC50 [nM] | Structure (SMILES) |
| --- | --- |
| 10 to 100 | C=CC(=O)N1CC[C@@H](N(C)c2nc(OCC34CCCN3CCC4)nc3c(F)c(-c4cccc5ccc(F)c(Cl)c45)ncc23)C1 |
| > 500 | C#Cc1c(F)ccc2cccc(-c3ncc4c(N(C)[C@@H]5CCN(C(=O)/C=C/c6cccnc6)C5)nc(OC[C@@]56CCCN5C[C@H](F)C6)nc4c3F)c12 |
| > 500 | C#Cc1c(F)ccc2cccc(-c3ncc4c(N(C)[C@@H]5CCN(C(=O)/C=C/c6ccccn6)C5)nc(OC[C@@]56CCCN5C[C@H](F)C6)nc4c3F)c12 |
| 100 to 500 | C#Cc1c(F)ccc2cccc(-c3ncc4c(N(C)[C@@H]5CCCN(C(=O)/C=C/c6cc(C)nc(C)n6)C5)nc(OC[C@@]56CCCN5C[C@H](F)C6)nc4c3F)c12 |

Reference: patent publication US20250019387A1 (Frontier Medicines Corporation, priority 0001, published 2025)
